Measurements: article PMC8228141, “Antiprotozoal Nor-Triterpene Alkaloids from Buxus sempervirens L” (Antibiotics, 2021)
Where two headings read alike, the source gives them in different places.

Experiments:
[1] = test system: Plasmodium falciparum (Pf) (intraerythrocytic forms, NF54 strain); experiment: In vitro antiplasmodial activity; format: cell-based
Method: (§1) After isolation, all alkaloids were tested in vitro for antiplasmodial and antitrypanosomal activity against Plasmodium falciparum (Pf) and Trypanosoma brucei rhodesiense (Tbr). Furthermore, to assess their selectivity against the parasites, cytotoxicity against L6 rat skeletal myoblasts, as mammalian control cells, was tested (Table 4).
(§2) In vitro assays for the bioactivity of the isolated Buxus-alkaloids against Tbr (bloodstream trypomastigotes, STIB 900 strain), Trypanosoma cruzi (Tc) (amastigotes, Tulahuen C4 strain), Leishmania donovani (Ldo) (amastigotes, MHOM-ET-67/L82 strain) and Pf (intraerythrocytic forms, NF54 strain), and cytotoxicity tests against mammalian cells (L6-cell line from rat-skeletal myoblasts), were performed at the Swiss Tropical and Public Health Institute (Swiss TPH, Basel, Switzerland) according to established standard protocols.

[2] = test system: Trypanosoma brucei rhodesiense (Tbr) (bloodstream trypomastigotes, STIB 900 strain); experiment: In vitro antitrypanosomal activity; format: cell-based; details: for Tbr IC50 / IC50: STIB 900 strain
Method: as §1
as §2, with “protocols. […] Such a pattern of activity was also observed in other studies.” for “protocols.”

[3] = test system: L6 rat skeletal myoblasts; experiment: Cytotoxicity against mammalian control cells; format: cell-based
Method: as §1, §2

[4] = test system: Trypanosoma brucei rhodesiense (Tbr) (bloodstream trypomastigotes, STIB 900 strain); set-up: method as in PMID 29738470; details: cited from earlier work
[5] = Cytotoxicity against mammalian control cells; format: cell-based, rat; details: rat, L6 rat skeletal myoblast cells, L6 cell line
Method: as §1, §2

[6] = test system: Plasmodium falciparum (Pf) (intraerythrocytic forms, NF54 strain); set-up: method as in PMID 24838073; details: previous study; cited from earlier work
[7] = NF54 strain, mean of n = 2 (fluctuation range) or * n = 3 (SD)
[8] = NF54 strain, read-out: Pf IC50 (in parentheses) (converted)
[9] = mean of n = 2 (fluctuation range) or * n = 3 (SD)
[10] = read-out: Tbr IC50 (in parentheses) (converted)

Molecule	Pf IC50 [1, 7]	IC50 [1, 8]	Tbr IC50 [2, 9]	IC50 [2, 10]	Cytotox. IC50 [3]	IC50 [3]	in vitro activity against Tbr [4]	IC50 ([1]; Plasmodium falciparum, NF54, NF54 strain, mean of n = 2 (fluctuation range) or * n = 3 (SD), read-out: Pf IC50)	IC50 ([1]; Plasmodium falciparum, NF54, NF54 strain, read-out: Pf IC50 (in parentheses) (converted))	SI Pf (selectivity index) ([1]; cytotoxicity L6 vs Pf)	IC50 ([2]; Trypanosoma brucei, mean of n = 2 (fluctuation range) or * n = 3 (SD), read-out: Tbr IC50)	IC50 ([2]; Trypanosoma brucei, read-out: Tbr IC50 (in parentheses) (converted))	SI Tbr (selectivity index) ([2]; cytotoxicity L6 vs Tbr)	IC50 ([5]; mean of n = 2 (fluctuation range) or * n = 3 (SD), read-out: Cytotox. IC50)	IC50 ([5]; read-out: Cytotox. IC50 (in parentheses) (converted))	Cytotox. IC50 ([3]; L6 cell line, mean of n = 2 (fluctuation range) or * n = 3 (SD))	IC50 ([3]; L6 cell line, read-out: Cytotox. IC50 (in parentheses) (converted))	in vitro activity against Pf [6]
CN[C@@H](C)[C@H]1[C@H](O)C[C@@]2(C)[C@@H]3C=C[C@H]4C(C)(C)[C@@H](N(C)C)CC[C@@]45C[C@@]35CC[C@]12C [Compound 2, Cyclovirobuxeine-B]	1.07 ± 0.11 µg/mL	2600 nM	0.6 ± 0.03 µg/mL	1.5 µM	14.7 ± 3.1 µg/mL	35.5 µM	highly active and selective											
CN[C@H]1CC=C2CC3=CC[C@@]4(C)[C@@](C)(CC[C@]4(O)[C@H](C)O)[C@@H]3CC[C@H]2C1(C)C [Compound 25, 17,20-dihydroxybuxadine-M]								3.6 ± 0.05 µg/mL	9300 nM	12	6.7 ± 0.49 µg/mL	17.3 µM	7	44.5 ± 5.5 µg/mL	115 µM			
O-tigloylcyclovirobuxeine-B [Compound 1]	0.52 ± 0.14 µg/mL	1050 nM	1.6 ± 0.55 µg/mL	3.2 µM												9.4 ± 3.8 µg/mL	19 µM	strong and selective in vitro activity
